Assay results: ChEMBL document CHEMBL4414635, “Dasymaschalolactams A-E, Aristolactams from a Twig Extract of Dasymaschalon dasymaschalum” (J Nat Prod, 2019)

Assay: Inhibition of Saccharomyces cerevisiae alpha-glucosidase using p-nitrophenyl alpha-D-glucoside as substrate incubated for 0.5 hrs followed by substrate addition and measured after 1 hr by colorimetric assay

Row | IC50 | SMILES
1 | 73.7 µM | C[C@H]1O[C@H](O[C@H]2[C@H](O)[C@@H](O)[C@@H](O[C@H]3[C@H](O)[C@@H](O)C(O)O[C@@H]3CO)O[C@@H]2CO)[C@H](O)[C@@H](O)[C@@H]1N[C@H]1C=C(CO)[C@@H](O)[C@H](O)[C@H]1O (some centres undefined) [ACARBOSE]
2 | 256 µM | COc1ccc([C@@H]2CC(=O)c3c(O)cc(O)c(O)c3O2)cc1
3 | 24.7 µM | COc1cc(/C=C/C(=O)NCCc2ccc(O)cc2)ccc1O [N-TRANS-FERULOYL TYRAMINE]
4 | 4.5 µM | O=C(/C=C/c1ccc(O)cc1)NCCc1ccc(O)cc1 [N-P-COUMAROYL TYRAMINE]
